Test results as given in US11883491B2, “Compositions and methods for prevention and treatment of hearing loss” (ST. JUDE CHILDREN'S RESEARCH HOSPITAL, priority 2017, dated 2024).

Tests used:
[1] = system: neonatal mouse cochlear explants; assay: Inhibitor alone: proliferation and differentiation of endogenous SCs and HCs in neonatal cochlear explants; assay type: cell-based; conditions: inhibitor by itself, after 7 days
Source text: Atoh1, a transcription factor, can convert non-sensory supporting cells (SCs) to hair cells (HCs) in neonatal and juvenile mammalian cochleae (Izumikawa, et al. (2005) Nature Med. 11:271-6; Kelly, et al. (2012) J. Neurosci. 32:6699-710; Liu, et al. (2012) J. Neurosci. 32:6600-10). Ectopic expression of Atoh1 has been approved for clinical trials as a gene therapy. However, Atoh1-induced HC conversion is inefficient (<17%), incomplete (lacking mature HC markers), and age-dependent (no response in adult cochlea) (Izumikawa, et al. (2008) Hearing Res. 240:52-6; Liu, et al. (2012) J. Neurosci. 32:6600-10). Using RNA-seq analysis to compare the transcriptome of SCs, endogenous outer HCs (OHCS), and Atoh1-induced HCs (cHCs) in adult mouse cochleae, it was observed that the epidermal growth factor receptor (EGFR) signaling is enriched in SCs and cHCs using gene set enrichment analysis (GSEA). To validate the role of EGFR pathway ex vivo, neonatal mouse cochlear explants were treated with a potent EGFR inhibitor (AG1478). […] In addition, inhibitors targeting proteins downstream of EGFR signaling were tested including WP1066 (STAT3 inhibitor), LY 294002 (PI3K inhibitor), U0126 (MEK inhibitor), and U73122 (PLC inhibitor) at various doses above their respective EC50 values. […]

[2] = system: neonatal mouse cochlear explants; assay: Atoh1-induced hair cell conversion in Atoh1-transfected neonatal mouse cochlear explants; assay type: cell-based
Method: Representative images show the immunostaining of cochlear explants transfected with Atoh1-IRES-GFP and treated with vehicle (FIGS. 1A and 1C) or 100 nM AG1478 (FIGS. 1B and 1D). Expression of hair cell marker Myo6 (↑) and Atoh1-transfected cells (GFP, ? ) are shown.
Atoh1 is transfected (O/E) in all conditions.

[3] = system: FVB mice; assay: Toxicity (median lethal dose) in neonatal mice; assay type: in vivo, mouse; conditions: postnatal day 1 (P1) FVB mice, intraperitoneal (IP) injection; estimated
Method: (§1) To further evaluate the use of an inhibitor of EGFR signaling in HC regeneration, the toxicity of AG1478 in neonatal and adult mice was assessed.

[4] = system: FVB mice; assay: Auditory brainstem response thresholds after transtympanic injection in adult mice; assay type: in vivo, mouse; conditions: adult (>P21) FVB mice, 10 μg transtympanic (TT) injection, 7 days after
Method: as §1

[5] = system: HEI-OC1 cells; assay: Protection against cisplatin-induced Caspase-3/7 activity / cell death in HEI-OC1 cells; assay type: cell-based, mouse; conditions: for protection against cisplatin-induced cell death: HEI-OC1, screen of 75 kinase inhibitors; for IC50: Mus musculus, HEI-OC1 cells
Method: (§2) A screen of a library composed of 75 kinase inhibitors was conducted to identify inhibitors that protect against cisplatin-induced hair cell loss.

[6] = system: mouse cochlear explants; conditions: for protection against cisplatin-induced hair cell loss: cochlear explants, screen of 75 kinase inhibitors
Method: as §2

[7] = system: mouse cochlear explants; assay: tissue or blood; conditions: read-out: IC50, protection against cisplatin-induced hair cell loss
Method: as §2

[8] = system: HEI-OC1 cells; conditions: CELLTITER-GLO
Method: as §2

What does the source list for `COc1cc2ncnc(Nc3cccc(Cl)c3)c2cc1OC` [AG1478, AG 1478]?
impact on the proliferation and differentiation of endogenous SCs and HCs [1]: no impact; Atoh1-induced hair cell conversion (immunostaining Myo6/GFP) ([2]; 100 nM AG1478 vs vehicle, Atoh1-IRES-GFP transfected explants): increased; Atoh1-induced HC conversion from explant SCs ([2]; AG1478 combined with Atoh1, from 24.7% without inhibitor, FIGS. 1A-1D): 80.6%; median lethal dose (LD50) [3]: 30 mg/kg; changes in auditory brainstem response (ABR) thresholds [4]: no significant changes

`CC1(COc2ccc3c(c2)ncn3-c2ccc3cccc(N4CCC(N)CC4)c3n2)COC1` [CRENOLANIB, Crenolanib] was tested. Which “protection against cisplatin-induced cell death” value [5] did it give?
Its value is “potently protected”.

What about the “protection against cisplatin-induced hair cell loss” value [6] of the same molecule?
The value was “potently protected”.

Which results are given for `CC(C)(C)c1nc(-c2cccc(NS(=O)(=O)c3c(F)cccc3F)c2F)c(-c2ccnc(N)n2)s1` [GSK2118436A, dabrafenib]?
protection against cisplatin-induced cell death [5]: potently protected; protection against cisplatin-induced hair cell loss [6]: potently protected

For `FC(F)(F)c1ccc(/C=C/c2nc(COc3ccc(CCCCn4ccnn4)cc3)co2)cc1` [MUBRITINIB, Mubritinib], which IC50 [7] is on record?
Its IC50 is 2.5 nM.

What about the “protection against cisplatin-induced cell death” value [5] of the same molecule?
Its value is “potently protected”.

And the IC50 [5]?
Its IC50 is 4 nM.

And the “protection against cisplatin-induced hair cell loss” value [6]?
Its value is “potently protected”.

What about the LD50 ([6]; mouse cochlear explants) of the same molecule?
Its LD50 is greater than 500 nM.

And the “Therapeutic Index” value ([6]; mouse cochlear explants, LD50/IC50)?
The value was greater than 200.

What about the LD50 [8] of the same molecule?
The LD50 was greater than 55 µM.

With `CCOc1cc2ncc(C#N)c(Nc3ccc(F)c(Cl)c3)c2cc1NC(=O)/C=C/CN(C)C` [PELITINIB, Pelitinib] as the molecule, how does the IC50 ([5]; cisplatin-Glo 3/7) read?
Its IC50 is 600 nM.

And the “protection of outer hair cells against cisplatin-induced hair cell loss” value ([6]; 1 hour pre-incubation, N=3)?
The value was 49%.

Which “protection against cisplatin-induced cell death” value [5] does the source give for `O=C(Nc1cccc(Cl)c1)Nc1ncc(CCNc2ncnc3ccsc23)s1` [SNS314] here?
Its value is “potently protected”.

And the “protection against cisplatin-induced hair cell loss” value [6]?
Its value is “potently protected”.
